# “Also recorded” adds a separate entry of the source.
# Assays:
# [1] = test system: CD34+ cells from sickle cell anemic patient (SCA); test: Fetal hemoglobin expression in CD34+ cells from sickle cell anemic patient differentiated towards erythrocytes; format: cell-based
# Protocol: Namalwa CSN.70 cells were purchased from DSMZ (Brauschweig, Germany). Bone marrow and cord blood CD34^+ cells were purchased Cambrex (Walkersville, Md.) and AllCells (Emeryville, Calif.), respectively. Bone marrow CD34+ cells from Sickle Cell Anemic (SCA) patient were provided by Christopher Morris (Loma Linda University Medical Center, CA).
# Namalwa were cultured in RPMI-1640 media (Invitrogen, Carlsbad) supplemented with 10% fetal bovine serum, penicillin (100 u/ml) and streptomycin (100 μg/ml). CD34^+ cells were expanded in serum free conditions in Iscove's DMEM (Invitrogen, Carlsbad, Calif.) supplemented with 20% serum substitute BIT (StemCell Techologies, Vancouver, BC) in the presence of SCF (100 ng/ml), Flt3-L (100 ng/ml) and IL-3 (20 ng/ml) (Biosource International, Camarillo, Calif.). Namalwa cells and CD34+ cells were cultured for 3 and 6 days, respectively. DMSO 0.1%, Comp. 1 or Comp. 2, valproic acid (VPA) or trichostatin A (TSA) at the concentration indicated were added during the 3 or 6 days of culture. […]
# (§1) After 6 days of culture, cells were washed with phosphate-buffered saline (PBS), fixed with 2% paraformaldehyde, permeabilized with cytopermeafix (BD-pharmingen), stained with HbF-PE (BD Pharmingen, San Diego, Calif.) and analyzed by flow cytometry (FACSAria, BD pharmingen).
# [2] = test system: Namalwa cells (human Burkitt Lymphoma); test: Namalwa cell proliferation (cell count by flow cytometry; BrDu incorporation); format: cell-based; conditions: 3 days; for effect of combination with VPA on cell proliferation arrest: FIGS. 3 and 5
# Protocol: (§2) Namalwa were cultured in RPMI-1640 media (Invitrogen, Carlsbad) supplemented with 10% fetal bovine serum, penicillin (100 u/ml) and streptomycin (100 μg/ml). CD34^+ cells were expanded in serum free conditions in Iscove's DMEM (Invitrogen, Carlsbad, Calif.) supplemented with 20% serum substitute BIT (StemCell Techologies, Vancouver, BC) in the presence of SCF (100 ng/ml), Flt3-L (100 ng/ml) and IL-3 (20 ng/ml) (Biosource International, Camarillo, Calif.). Namalwa cells and CD34+ cells were cultured for 3 and 6 days, respectively. DMSO 0.1%, Comp. 1 or Comp. 2, valproic acid (VPA) or trichostatin A (TSA) at the concentration indicated were added during the 3 or 6 days of culture. BM-CD34+ cells were cultured in Iscove's MDM with BIT 95000 (StemCell technologies) in the presence of growth factors. During the first 6 days CD34^+ cells were expanded with SCF (100 ng/ml), Flt3-L (100 ng/ml), and IL-3 (20 ng/ml) and then differentiated toward the erythroid lineage by culture with SCF (50 ng/ml) and EPO (2U or 4 U/ml) for 6 days. To study the effect of immunomodulatory compounds, CD34^+ progenitor cells were differentiated for a period of 6 days in the presence or absence of Comp. 1, Comp. 2 or hydroxyurea (HU).
# (§3) Namalwa and CD34^+ cells were plated at 4000 and 2000 cells per well, respectively into 96-well plate and treated with compound. After the time indicated, cells were counted and phenotypically analyzed by flow cytometry using the FACSarray. The percentage of apoptotic cells and CD34^+ cells were monitored using Propidium iodide staining (BD pharmingen, Chicago, Ill.) and the antibody anti-CD34 (PE-conjugated) (BD pharmingen), respectively, according to the manufacturer experimental procedure.
# Namalwa cells were plated at 10,000 cells per well in 96 well plates and treated with TSA and Comp. 1 at the concentration indicated for 3 days. The effects of TSA and Comp. 1 on cell proliferation were measured using BrDu incorporation kit (Roche, Germany).
# [3] = test system: cord blood CD34+ cells; test: Expansion of cord blood-derived CD34+ cells (cell count and anti-CD34 flow cytometry); format: cell-based; conditions: for effects of combination with TSA on CD34+ expansion, CD34+ cell number / effects of combination with TSA on CD34+ expansion, percent of CD34+ cells / effects of combination with VPA on CD34+ expansion, CD34+ cell number / effects of combination with VPA on CD34+ expansion, percent of CD34+ cells / number of CD34+ cells / percent of CD34+ cells: after 6 days of culture; for effects of combination with TSA on CD34+ expansion, CD34+ cell number: FIGS. 7 and 9; for effects of combination with TSA on CD34+ expansion, percent of CD34+ cells: FIGS. 8 and 10; for effects of combination with VPA on CD34+ expansion, CD34+ cell number: FIGS. 11 and 13; for effects of combination with VPA on CD34+ expansion, percent of CD34+ cells: FIGS. 12 and 14; for number of CD34+ cells / percent of CD34+ cells: compound alone, in a dose dependent manner; for kind of combination effect with VPA on CD34+ expansion (number and percent): tables in FIGS. 11-14
# Protocol: as §2, §3
# [4] = test system: CD34+ hematopoietic stem cells from a healthy donor; test: Fetal hemoglobin expression in CD34+ cells from a healthy donor differentiated towards erythrocytes; format: cell-based; conditions: for percentage of HbF expressing cells: compound alone, healthy donor, after 6 days of culture, in a dose dependent manner; for effect of combination with HU on HbF expression: healthy (normal) donor, HU at 10 μM added to the growth cocktail, 6 days, FIG. 15
# Protocol: as §2, §1
# [5] = test system: Namalwa cells (human Burkitt Lymphoma); test: Namalwa cell apoptosis (Propidium iodide staining, flow cytometry); format: cell-based; conditions: 3 days; for effect of combination with VPA on inducing apoptosis: FIGS. 4 and 6
# Protocol: as §2, §3
# [6] = cited from earlier work; for relative stability among polymorphs: Form A: among anhydrous polymorphs, Form E: in aqueous solvent systems; for hygroscopicity: polymorphic form of 3-(4-amino-1-oxo-1,3 dihydro-isoindol-2-yl)-piperidene-2,6-dione; for conversion upon heating (desolvation experiments): Form E: about 125° C. for about five minutes, Form B: 175° C. for about five minutes; for interconversion in solvent systems or at higher relative humidity: interconversion studies
smiles,measurement,setting,value
"Nc1cccc2c1C(=O)N(C1CCC(=O)NC1=O)C2=O (stereo not drawn) [Compound 1, 4-(amino)-2-(2,6-dioxo(3-piperidyl))-isoindoline-1,3-dione]",effect of combination with HU on HbF expression,"[1]; HU at 10 μM added to the growth cocktail, 6 days, FIG. 16",significantly improved the effect of Compound 1 on HbF expression in a synergistic manner
same,percentage of HbF expressing cells,"[1]; compound alone, after 6 days of culture, in a dose dependent manner",increased
same,effect of combination with VPA on cell proliferation arrest,[2],synergistic and additive; also recorded: additive and synergistic
same,effect of combination with TSA on cell proliferation arrest,"[2]; TSA at 10 nM, FIG. 1",synergistic and additive
same,effect of the addition of TSA on the compound's effect on CD34+ expansion,"[3]; TSA at 10 nM added to the growth cocktail, 6 days",significantly improved
same,effect of the addition of VPA on the compound's effect on CD34+ expansion,"[3]; VPA at 0.1, 0.3 and 1 mM added to the growth cocktail, 6 days",significantly improved
same,"effects of combination with TSA on CD34+ expansion, CD34+ cell number",[3],additive and synergistic
same,"effects of combination with TSA on CD34+ expansion, percent of CD34+ cells",[3],additive and synergistic
same,"effects of combination with VPA on CD34+ expansion, CD34+ cell number",[3],additive and synergistic
same,"effects of combination with VPA on CD34+ expansion, percent of CD34+ cells",[3],additive and synergistic
same,number of CD34+ cells,[3],increased
same,percent of CD34+ cells,[3],increased
same,"kind of combination effect on CD34+ expansion (number and percent), partner printed as VPA","[3]; tables in FIGS. 7-10, which belong to the TSA experiments, 6 days","additive to Compound 1, and in some conditions, a synergistic effect was observed"
same,kind of combination effect with VPA on CD34+ expansion (number and percent),[3]; 6 days,"additive to Compound 1, and in some conditions, a synergistic effect was observed"
same,percentage of HbF expressing cells,[4],increased
same,effect of combination with HU on HbF expression,[4],significantly improved the effect of Compound 1 and Compound 2 on HbF expression in a synergistic manner
same,effect of combination with VPA on inducing apoptosis,[5],synergistic and additive; also recorded: additive and synergistic
same,effect of combination with TSA on inducing apoptosis,"[5]; TSA at 10 nM, FIG. 2",synergistic and additive
"Nc1cccc2c1CN(C1CCC(=O)NC1=O)C2=O (stereo not drawn) [Compound 2, 3-(4-amino-1-oxo-1,3-dihydro-isoindol-2-yl)-piperidine-2,6-dione]",effect of combination with VPA on cell proliferation arrest,[2],synergistic and additive; also recorded: additive and synergistic
same,effect of the addition of TSA on the compound's effect on CD34+ expansion,"[3]; TSA at 1 and 10 nM added to the growth cocktail, 6 days",significantly improved
same,effect of the addition of VPA on the compound's effect on CD34+ expansion,"[3]; VPA at 0.1 and 0.3 mM added to the growth cocktail, 6 days",significantly improved
same,"effects of combination with TSA on CD34+ expansion, CD34+ cell number",[3],additive and synergistic
same,"effects of combination with TSA on CD34+ expansion, percent of CD34+ cells",[3],additive and synergistic
same,"effects of combination with VPA on CD34+ expansion, CD34+ cell number",[3],additive and synergistic
same,"effects of combination with VPA on CD34+ expansion, percent of CD34+ cells",[3],additive and synergistic
same,number of CD34+ cells,[3],increased
same,percent of CD34+ cells,[3],increased
same,kind of combination effect with VPA on CD34+ expansion (number and percent),[3]; 6 days,"additive to Compound 2, and in some conditions, a synergistic effect was observed"
same,percentage of HbF expressing cells,[4],increased
same,effect of combination with HU on HbF expression,[4],significantly improved the effect of Compound 1 and Compound 2 on HbF expression in a synergistic manner
same,effect of combination with VPA on inducing apoptosis,[5],synergistic and additive; also recorded: additive and synergistic
"Nc1cccc2c1CN(C1CCC(=O)NC1=O)C2=O (stereo not drawn) [Form A, 3-(4-amino-1-oxo-1,3 dihydro-isoindol-2-yl)-piperidene-2,6-dione]",relative stability among polymorphs,[6],most thermodynamically stable anhydrous polymorph
same,hygroscopicity,[6],weakly or not hygroscopic
"Nc1cccc2c1CN(C1CCC(=O)NC1=O)C2=O (stereo not drawn) [Form B, 3-(4-amino-1-oxo-1,3 dihydro-isoindol-2-yl)-piperidene-2,6-dione]",conversion upon heating (desolvation experiments),[6],can convert to Form F
same,interconversion in solvent systems or at higher relative humidity,[6],"converts to Form E in aqueous solvent systems, and converts to other forms in acetone and other anhydrous systems"
"Nc1cccc2c1CN(C1CCC(=O)NC1=O)C2=O (stereo not drawn) [Form C, 3-(4-amino-1-oxo-1,3 dihydro-isoindol-2-yl)-piperidene-2,6-dione]",interconversion in solvent systems or at higher relative humidity,[6],can convert to Form B at higher relative humidities
same,hygroscopicity,[6],not hygroscopic below about 85% RH
"Nc1cccc2c1CN(C1CCC(=O)NC1=O)C2=O (stereo not drawn) [Form D, 3-(4-amino-1-oxo-1,3 dihydro-isoindol-2-yl)-piperidene-2,6-dione]",interconversion in solvent systems or at higher relative humidity,[6],convert to Form B when stressed at higher relative humidities
same,hygroscopicity,[6],either weakly or not hygroscopic
"Nc1cccc2c1CN(C1CCC(=O)NC1=O)C2=O (stereo not drawn) [Form E, 3-(4-amino-1-oxo-1,3 dihydro-isoindol-2-yl)-piperidene-2,6-dione]",relative stability among polymorphs,[6],most stable form
same,conversion upon heating (desolvation experiments),[6],can convert to Form B
same,interconversion in solvent systems or at higher relative humidity,[6],can convert to Form C in an acetone solvent system and to Form G in a THF solvent system
